Measured values as given in patent publication US20100104659A1, “BENZOPYRANOPYRAZOLES” (priority 2006, published 2010).

These molecules were tested on RKO human colon adenocarcinoma cells (RKOp27 subclone), proliferating (assay: Alamar Blue cell viability assay, RKO p27 uninduced (proliferating)). Conditions: RKOp27, 72 h, read-out: −log EC50 [mol/l] RKO p27 uninduced (proliferating), anti-proliferative/cytotoxic activity (converted).
Protocol: The anti-proliferative/cytotoxic activity of the compounds described herein can be tested on subclones of RKO human colon adenocarcinoma cells (Schmidt et al., Oncogene 19, 2423-2429; 2000) using the Alamar Blue cell viability assay (described in O'Brien et al. Eur J Biochem 267, 5421-5426, 2000). The compounds are dissolved as 10 mM solutions in DMSO and subsequently diluted in semi-logarithmic steps. DMSO dilutions are further diluted 1:100 into Dulbecco's modified Eagle's medium (DMEM) containing 10% fetal calf serum to a final concentration twice as much as the final concentration in the test. RKO subclones are seeded into 96 well flat bottom plates at a density of 4000 cells per well in a volume of 50 μl per well. 24 hours after seeding the 50 μl each of the compound dilutions in DMEM medium are added into each well of the 96 well plate. Each compound dilution is tested as triplicates. Wells containing untreated control cells are filled with 50 μl DMEM medium containing 1% DMSO. The cells are then incubated with the substances for 72 hours at 37° C. in a humidified atmosphere containing 5% carbon dioxide. To determine the viability of the cells, 10 μl of an Alamar Blue solution (Biosource) are added and the fluorescence is measured at an extinction of 544 nm and an emission of 590 nm. For the calculation of the cell viability the emission value from untreated cells is set as 100% viability and the emission rates of treated cells are set in relation to the values of untreated cells. Viabilities are expressed as % values. The Graphpad Prism program (GraphPad Software, Inc) is used for the calculation of EC50 values for anti-proliferative/cytotoxic activity out of the obtained dose-response curves.
Each compound dilution is tested as triplicates. Wells containing untreated control cells are filled with 50 μl DMEM medium containing 1% DMSO. The cells are then incubated with the substances for 72 hours at 37° C. in a humidified atmosphere containing 5% carbon dioxide. To determine the viability of the cells, 10 μl of an Alamar Blue solution (Biosource) are added and the fluorescence is measured at an extinction of 544 nm and an emission of 590 nm. For the calculation of the cell viability the emission value from untreated cells is set as 100% viability and the emission rates of treated cells are set in relation to the values of untreated cells. Viabilities are expressed as % values. The Graphpad Prism program is used for the calculation of EC50 values out of the obtained dose-response curves. Viability is compared of proliferating cells grown in the absence of the inducer Ponasterone A, versus viability of cells arrested by the expression of ectopic p27Kip1 induced by Ponasterone A.

Structure (SMILES)	EC50
CN(C)C(=O)N1N=C2c3cc(F)ccc3OC[C@H]2[C@@H]1c1cccc(O)c1 (racemic) [Example 1, (3RS,3aSR)-8-Fluoro-3-(3-hydroxy-phenyl)-3a,4-dihydro-3H-chromeno[4,3-c]pyrazole-2-carboxylic acid dimethylamide]	0.1 to 1 µM
CC(C)NCCN(C)C(=O)N1N=C2c3cc(F)ccc3OC[C@H]2[C@H]1c1ccccc1 (racemic) [Example 39, (3SR,3aSR)-8-Fluoro-3-phenyl-3a,4-dihydro-3H-chromeno[4,3-c]pyrazole-2-carboxylic acid (2-isopropylamino-ethyl)-methyl-amide]	≤ 0.1 µM
CN(CCN1CCCCC1)C(=O)N1N=C2c3cc(F)ccc3OC[C@H]2[C@H]1c1ccccc1 (racemic) [Example 36, (3SR,3aSR)-8-Fluoro-3-phenyl-3a,4-dihydro-3H-chromeno[4,3-c]pyrazole-2-carboxylic acid methyl-(2-piperidin-1-yl-ethyl)-amide]	0.1 to 1 µM
CN(C(=O)N1N=C2c3cc(F)ccc3OC[C@H]2[C@H]1c1ccccc1)C1CCNCC1 [Example 16a, (3S,3aS)-8-Fluoro-3-phenyl-3a,4-dihydro-3H-chromeno[4,3-c]pyrazole-2-carboxylic acid methyl-piperidin-4-yl-amide]	≤ 0.1 µM
CCN(C)CCCN(C)C(=O)N1N=C2c3cc(F)ccc3OC[C@H]2[C@H]1c1ccccc1 (racemic) [Example 55, (3SR,3aSR)-8-Fluoro-3-phenyl-3a,4-dihydro-3H-chromeno[4,3-c]pyrazole-2-carboxylic acid [3-(ethyl-methyl-amino)-propyl]-methyl-amide]	≤ 0.1 µM
CN1CCC(N(C(=O)N2N=C3c4cc(F)ccc4OC[C@@H]3[C@@H]2c2cccc(O)c2)C2CC2)CC1 (racemic) [Example 5, (3RS,3aRS)-8-Fluoro-3-(3-hydroxy-phenyl)-3a,4-dihydro-3H-chromeno[4,3-c]pyrazole-2-carboxylic acid cyclopropyl-(1-methyl-piperidin-4-yl)-amide]	0.1 to 1 µM
CCN(CCCN(C)C(=O)N1N=C2c3cc(F)ccc3OC[C@H]2[C@H]1c1ccccc1)CCOC (racemic) [Example 56, (3SR,3aSR)-8-Fluoro-3-phenyl-3a,4-dihydro-3H-chromeno[4,3-c]pyrazole-2-carboxylic acid {3-[ethyl-(2-methoxy-ethyl)-amino]-propyl}-methyl-amide]	0.1 to 1 µM
CC1CCN(CCN(C)C(=O)N2N=C3c4cc(F)ccc4OC[C@H]3[C@H]2c2ccccc2)CC1 (racemic) [Example 65, (3SR,3aSR)-8-Fluoro-3-phenyl-3a,4-dihydro-3H-chromeno[4,3-c]pyrazole-2-carboxylic acid methyl-[2-(4-methyl-piperidin-1-yl)-ethyl]-amide]	0.1 to 1 µM
CN(CCNC1CCC1)C(=O)N1N=C2c3cc(F)ccc3OC[C@H]2[C@H]1c1ccccc1 (racemic) [Example 44, (3SR,3aSR)-8-Fluoro-3-phenyl-3a,4-dihydro-3H-chromeno[4,3-c]pyrazole-2-carboxylic acid (2-cyclobutylamino-ethyl)-methyl-amide]	≤ 0.1 µM
CN(C)CCN(C)C(=O)N1N=C2c3cc(F)ccc3OC[C@@H]2[C@@H]1c1ccccc1 (racemic) [Example 19, (3RS,3aRS)-8-Fluoro-3-phenyl-3a,4-dihydro-3H-chromeno[4,3-c]pyrazole-2-carboxylic acid (2-dimethylamino-ethyl)-methyl-amide]	≤ 0.1 µM
CCNCCN(C)C(=O)N1N=C2c3cc(F)ccc3OC[C@H]2[C@H]1c1ccccc1 (racemic) [Example 62, (3SR,3aSR)-8-Fluoro-3-phenyl-3a,4-dihydro-3H-chromeno[4,3-c]pyrazole-2-carboxylic acid (2-ethylamino-ethyl)-methyl-amide]	0.1 to 1 µM
CN(C(=O)N1N=C2c3cc(F)ccc3OC[C@H]2[C@H]1c1cccc(O)c1)C1CCNCC1 [Example 27a, (3S,3aS)-8-Fluoro-3-(3-hydroxy-phenyl)-3a,4-dihydro-3H-chromeno[4,3-c]pyrazole-2-carboxylic acid methyl-piperidin-4-yl-amide]	≤ 0.1 µM
CN(C)C(=O)N1N=C2c3cc(F)ccc3OC[C@H]2[C@@H]1c1cccc(O)c1 (single isomer, unassigned) [Example 2b, (−)-cis-8-Fluoro-3-(3-hydroxy-phenyl)-3a,4-dihydro-3H-chromeno[4,3-c]pyrazole-2-carboxylic acid dimethylamide]	≤ 0.1 µM
C=CCN(C)CCN(C)C(=O)N1N=C2c3cc(F)ccc3OC[C@H]2[C@H]1c1ccccc1 (racemic) [Example 63, (3SR,3aSR)-8-Fluoro-3-phenyl-3a,4-dihydro-3H-chromeno[4,3-c]pyrazole-2-carboxylic acid [2-(allyl-methyl-amino)-ethyl]-methyl-amide]	0.1 to 1 µM
CNCCCN(C)C(=O)N1N=C2c3cc(F)ccc3OC[C@@H]2[C@@H]1c1ccccc1 (racemic) [Example 22, (3RS,3aRS)-8-Fluoro-3-phenyl-3a,4-dihydro-3H-chromeno[4,3-c]pyrazole-2-carboxylic acid methyl-(3-methylamino-propyl)-amide]	≤ 0.1 µM
CCN(C)CCN(C)C(=O)N1N=C2c3cc(F)ccc3OC[C@H]2[C@H]1c1ccccc1 (racemic) [Example 53, (3SR,3aSR)-8-Fluoro-3-phenyl-3a,4-dihydro-3H-chromeno[4,3-c]pyrazole-2-carboxylic acid [2-(ethyl-methyl-amino)-ethyl]-methyl-amide]	≤ 0.1 µM
CN(C(=O)N1N=C2c3cc(F)ccc3OC[C@@H]2[C@@H]1c1cccc(O)c1)C1CCNCC1 (racemic) [Example 27, (3RS,3aRS)-8-Fluoro-3-(3-hydroxy-phenyl)-3a,4-dihydro-3H-chromeno[4,3-c]pyrazole-2-carboxylic acid methyl-piperidin-4-yl-amide]	≤ 0.1 µM
CC(=O)N1CCN(CCCN(C)C(=O)N2N=C3c4cc(F)ccc4OC[C@H]3[C@H]2c2ccccc2)CC1 (racemic) [Example 35, (3SR,3aSR)-8-Fluoro-3-phenyl-3a,4-dihydro-3H-chromeno[4,3-c]pyrazole-2-carboxylic acid [3-(4-acetyl-piperazin-1-yl)-propyl]-methyl-amide]	0.1 to 1 µM
CCN(CCO)CCCN(C)C(=O)N1N=C2c3cc(F)ccc3OC[C@@H]2[C@@H]1c1ccccc1 (racemic) [Example 59, (3RS,3aRS)-8-Fluoro-3-phenyl-3a,4-dihydro-3H-chromeno[4,3-c]pyrazole-2-carboxylic acid {3-[ethyl-(2-hydroxy-ethyl)-amino]-propyl}-methyl-amide]	≤ 0.1 µM
CN(CCO)CCN(C)C(=O)N1N=C2c3cc(F)ccc3OC[C@H]2[C@H]1c1ccccc1 (racemic) [Example 49, (3SR,3aSR)-8-Fluoro-3-phenyl-3a,4-dihydro-3H-chromeno[4,3-c]pyrazole-2-carboxylic acid {2-[(2-hydroxy-ethyl)-methyl-amino]-ethyl}-methyl-amide]	≤ 0.1 µM
CN1CCC(N(C(=O)N2NC3c4cc(F)ccc4OC[C@H]3[C@@H]2c2ccccc2)C2CC2)CC1 (mixture of isomers) [Example 15, (3RS,3aRS)-8-Fluoro-3-phenyl-1,3a,4,9b-tetrahydro-3H-chromeno[4,3-c]pyrazole-2-carboxylic acid cyclopropyl-(1-methyl-piperidin-4-yl)-amide]	≤ 0.1 µM
